Reference: patent US5639726A, “Peptide mediated enhancement of thrombolysis methods and compositions” (The Regents of the University of Michigan, priority 1994, dated 1997)
“Also recorded” adds a separate entry of the source. Ends that are not written are not given here.

Legend:
PAI-1 [1] = target: T1, PAI-1 (Homo sapiens, UniProt P05121); assay: SDS-PAGE of peptide treated PAI-1 reacted with tPA, uPA or trypsin; assay type: biochemical; conditions: for formation of SDS stable PAI-1:enzyme complexes after peptide treatment: free PAI-1 preincubated with peptide, then tPA (uPA or trypsin); for conversion of PAI-1 to a substrate (cleaved PAI-1): peptide treated PAI-1 reacted with tPA
T1 construct: made in house; host or cells: E. coli (vector pET3a)
T1 sequence (P05121 24-402): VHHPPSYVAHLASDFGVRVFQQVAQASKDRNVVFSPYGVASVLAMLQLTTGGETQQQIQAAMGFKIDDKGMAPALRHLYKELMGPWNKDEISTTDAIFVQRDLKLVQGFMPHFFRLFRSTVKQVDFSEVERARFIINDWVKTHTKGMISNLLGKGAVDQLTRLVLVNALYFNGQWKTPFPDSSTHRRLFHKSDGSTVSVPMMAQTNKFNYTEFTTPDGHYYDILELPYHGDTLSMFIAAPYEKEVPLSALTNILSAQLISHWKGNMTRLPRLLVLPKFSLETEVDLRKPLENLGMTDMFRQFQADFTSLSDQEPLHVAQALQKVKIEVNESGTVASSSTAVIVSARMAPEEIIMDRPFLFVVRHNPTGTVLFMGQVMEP
Experimental: (§1) SDS-polyacrylamide gel electrophoresis (SDS-PAGE) under nonreducing conditions was carried out according to the method of Laemmli (Laemmli, 1970) on 10% gels. Native gel electrophoresis with 5% gels was carried out by omitting SDS and boiling from Laemmli's method. All gels were stained with Coomassie brilliant blue. Gels of PAI-peptide samples were scanned with an LKB Ultroscan XL Laser Densitometer to determine the relative amounts of peptide-annealed and latent PAI.
PAI that had been incubated with peptide was tested for inhibitory and substrate activity by incubating with tPA, uPA or trypsin. SDS-PAGE was then performed on the samples. Free PAI formed a complex band when incubated with any of the enzymes, as well as a faint band indicative of cleaved PAI. Because substoichiometric amounts of enzyme were used there was also a band for free PAI. When PAI was incubated with any of the peptides, the electrophoretic mobility was the same as that of free PAI after denaturing with SDS. When PAI was annealed to any of 8-mers, then allowed to react with tPA, uPA or trypsin, no PAI-enzyme complex band was seen.
SDS-PAGE was performed using a PhastSystem (Pharmacia), Upssala, Sweden, according to manufacturer's instructions. Gels were stained with Coomassie Brilliant Blue.
SDS-PAGE was performed to determine the effect of Thr-Val-Ala-Ser-Ser-Ser-Thr-Ala-Val-Ile-Val-Ser-Ala-Arg (SEQ ID NO: 1) on t-PA:PAI-1 complex formation in the presence and absence of vitronectin.

PAI-1 [2] = target: T1, PAI-1; assay: Thermal denaturation of peptide treated PAI-1; conditions: FIG. 4
Excerpt: Circular dichroism (CD) spectra analysis (Strandberg et al., 1991) indicated similar secondary structural components for the PAI-1 mutants, as well as active and latent wild-type PAI-1.
(Lawrence et al., 1994c). […] As expected, active PAI-1 was much less thermally stable than latent PAI-1 or elastase cleaved PAI-1 (FIG. 4). […] This is precisely the behavior expected for a serpin with a peptide intercalated into β-sheet A (Carrell et al., 1991; Schulze et al., 1990; Bjork et al., 1992). […] If the 14 residue peptide were intercalated into β-sheet A, then the added length of the peptide bound to sheet A would be expected to increase the stability not decrease it.
Upon completion of peptide annealing, the incubation solution contained a mixture of annealed PAI-peptide, latent PAI, and excess peptide. For circular dichroism (CD) spectra, melting curves, and mass spectroscopy determinations, the excess peptide was removed. This was done by loading the mixture on a heparin-sepharose column which had been equilibrated with 0.05M sodium phosphate, 0.15M NaCl, 1 mM EDTA, 0.01% TWEEN-80, pH 6.6. Washing the column with this buffer removed the excess peptide. The PAI-peptide and latent PAI were eluted together with 0.05M Sodium phosphate, 1M NaCl, 1 mM EDTA, 0.01% TWEEN-80, pH 6.6. […] The absorbance at 280 nm was used to determine the final protein concentration. […]

PAI-1 [3] = target: T1, PAI-1; assay: Plasminogen activator inhibitor 1 activity assay (t-PA, Spectrozyme t-PA); assay type: biochemical; conditions: for PAI-1 T1/2: PAI-1 0.7 μM, peptide 55 μM, 98±18 min without peptide
Experimental: PAI-1 (0.7 μM) was incubated at 37° C. with either P1-P14 peptide or control peptide (55 μM) in 0.1M HEPES, 0.1M NACl, 0.1% PEG (MW 8000), pH 7.4 (assay buffer). At timed intervals 0-110 minutes), 5 μL of the PAI-1:peptide mixture was added to 96 well microtiter plates containing 45 μL of t-PA (0.03 μM in assay buffer), then incubated for 30 minutes at 37° C. Spectrozyme t-PA (final concentration of 150 μM) was added to yield a final reaction volume of 70 μL, and 30 minutes later the absorbance at 405 nm was determined in a THERMO-max (Molecular Devices, Palo Alto, Calif.) microplate reader. 100% PAI-1 activity was defined as activity observed at time zero, while 0% PAI-1 activity was defined as that observed in the absence of PAI-1. A standard t-PA activity curve, derived from absorbance values of varying concentrations of t-PA incubated in the absence of PAI-1, was used to determine PAI-1 activity.

PAI-1 [4] = target: T1, PAI-1; assay: Native gel electrophoresis of PAI incubated with peptide; assay type: binding
Experimental: as §1
Four of the five peptides have a net negative charge due to glutamic acid residues and the free carboxy terminus (FIG. 1). The wtPAI 8-mer has a net -1 charge (the carboxy terminus). The V→E PAI 8-mer (SEQ ID NO:3) and consensus 8-mer (SEQ ID NO:4) each have a -2 charge (the glutamic acid residue and the carboxyl group). […] The PAI 14-mer (SEQ ID NO:1) is uncharged since it contains no glutamic acid and the arginine and carboxyl groups neutralize each other. Because of the negative charges of 4 of the peptides, native gels of PAI annealed to these peptides should show a band which migrates more quickly than the band representative of free active PAI. Similarly, if one of these peptides is incubated with PAI but fails to form a strong interaction with PAI, native gels should show a band which migrates identically to the free PAI.

Substance: Ac-TVASSSTAVIVSAR [SEQ ID NO: 1, Thr-Val-Ala-Ser-Ser-Ser-Thr-Ala-Val-Ile-Val-Ser-Ala-Arg]
- formation of SDS stable PAI-1:enzyme complexes after peptide treatment (PAI-1 [1]): no t-PA:PAI-1 complex formation was observed
- formation of SDS stable PAI-1:enzyme complexes after peptide treatment (PAI-1 [1]; listed as P1-P14 peptide): inhibited complex formation
- PAI forms on SDS-PAGE (PAI-1 [1]; high peptide concentration): almost all of the PAI is in the latent conformation
- PAI forms on SDS-PAGE (PAI-1 [1]; low peptide concentration): a significant substrate band formed along with the dominant latent PAI band
- conversion of PAI-1 to a substrate (cleaved PAI-1) (PAI-1 [1]): did not convert PAI-1 to a substrate form; also recorded: substrate form of PAI-1 was not generated
- conversion of PAI-1 to a substrate (cleaved PAI-1) (PAI-1 [1]; listed as wt14-mer): did not behave as a substrate
- thermal stability of peptide treated PAI-1 (PAI-1 [2]): very similar to latent PAI-1
- PAI-1 T1/2 (PAI-1 [3]; 37° C.): approximately four
- PAI-1 T1/2 (PAI-1 [3]; 37° C., listed as P1-P14 peptide): 4 ± 3 min
- fold shortening of the PAI-1 T1/2 (PAI-1 [3]; 37° C., peptide 55 μM vs no peptide, listed as P1-P14 peptide): 24 fold
- drop in t1/2, wt14-mer (37° C.) compared to wt8-mer (25° C.) (PAI-1 [3]; similar peptide concentrations (55 μM)): 100 fold
- electrophoretic mobility of active PAI incubated with peptide, native gel (PAI-1 [4]): a band at the same position as free active PAI
